According to ChEMBL document CHEMBL1208750, “Synthesis, larvicidal activity, and SAR studies of new benzoylphenylureas containing oxime ether and oxime ester group” (2010):
Converted amounts (≈) assume the structure as drawn.

How the values were obtained:
Assay type in all cases: functional
Mythimna separata [1] = assay: Larvicidal activity against Oriental armyworm at 200 mg/L
Mythimna separata [2] = assay: Larvicidal activity against Oriental armyworm at 100 mg/L
Aedes aegypti [3] = assay: Larvicidal activity against mosquito larvae at 0.25 mg/L
Mythimna separata [4] = assay: Larvicidal activity against Oriental armyworm at 5 mg/L
Mythimna separata [5] = assay: Larvicidal activity against Oriental armyworm at 50 mg/L
Mythimna separata [6] = assay: Larvicidal activity against Oriental armyworm at 25 mg/L
Mythimna separata [7] = assay: Larvicidal activity against Oriental armyworm at 10 mg/L
Aedes aegypti [8] = assay: Larvicidal activity against mosquito larvae at 0.5 mg/L
Mythimna separata [9] = assay: Larvicidal activity against Oriental armyworm at 0.5 mg/L
Aedes aegypti [10] = assay: Larvicidal activity against mosquito larvae at 0.05 mg/L
Aedes aegypti [11] = assay: Larvicidal activity against mosquito larvae at 0.1 mg/L
Mythimna separata [12] = assay: Larvicidal activity against Oriental armyworm at 1 mg/L
Aedes aegypti [13] = assay: Larvicidal activity against mosquito larvae at 0.025 mg/L
Mythimna separata [14] = assay: Larvicidal activity against Oriental armyworm at 2.5 mg/L
Aedes aegypti [15] = assay: Larvicidal activity against mosquito larvae at 1 mg/L
Aedes aegypti [16] = assay: Larvicidal activity against mosquito larvae at 2 mg/L
Aedes aegypti [17] = assay: Larvicidal activity against mosquito larvae at 0.01 mg/L
Aedes aegypti [18] = assay: Larvicidal activity against mosquito larvae at 0.005 mg/L
Aedes aegypti [19] = assay: Larvicidal activity against mosquito larvae at 0.0025 mg/L
Plutella xylostella = assay: Larvicidal activity against diamondback moth
Aedes aegypti [20] = assay: Larvicidal activity against mosquito larvae at 0.001 mg/L
Mythimna separata [21] = assay: Larvicidal activity against Oriental armyworm at 0.25 mg/L
Mythimna separata [22] = assay: Larvicidal activity against Oriental armyworm at 0.125 mg/L
Ostrinia nubilalis = assay: Larvicidal activity against corn Borer
Spodoptera exigua = assay: Larvicidal activity against beet armyworm
Aedes aegypti [23] = assay: Larvicidal activity against mosquito larvae at 0.0001 mg/L
Aedes aegypti [24] = assay: Larvicidal activity against mosquito larvae at 0.00025 mg/L

For `Cc1cccc(O/N=C/c2ccc(NC(=O)NC(=O)c3c(F)cccc3F)cc2)c1`, the Activity (Mythimna separata [1]) was 100%, the Activity (Mythimna separata [2]) was 90% and the Activity (Aedes aegypti [3]) was 60%. For the same molecule, the Activity (Mythimna separata [4]) was 0%, the Activity (Mythimna separata [5]) was 50% and the Activity (Mythimna separata [6]) was 30%. It also gave an Activity (Mythimna separata [7]) of 10% and an Activity (Aedes aegypti [8]) of 90%.
`C/C(=N\OC(C)C)c1ccc(NC(=O)NC(=O)c2c(F)cccc2F)cc1` gave an Activity (Aedes aegypti [3]) of 100%, an Activity (Mythimna separata [4]) of 100% and an Activity (Mythimna separata [9]) of 0%. It also gave an Activity (Aedes aegypti [10]) of 90%, an Activity (Aedes aegypti [11]) of 90% and an Activity (Mythimna separata [12]) of 10%. For the same molecule, the Activity (Aedes aegypti [13]) was 30%, the Activity (Mythimna separata [7]) was 100% and the Activity (Aedes aegypti [8]) was 100%. It also gave an Activity (Mythimna separata [14]) of 65%.
`C/C(=N\OCc1ccccc1)c1ccc(NC(=O)NC(=O)c2c(F)cccc2F)cc1` was tested, and the Activity (Aedes aegypti [15]) was 0%, the Activity (Mythimna separata [5]) was 90% and the Activity (Mythimna separata [6]) was 80%. The Activity (Mythimna separata [7]) was 10% and the Activity (Aedes aegypti [16]) was 0%.
`CC(C)O/N=C(\C#N)c1ccc(NC(=O)NC(=O)c2c(F)cccc2F)cc1` was tested, and the Activity (Aedes aegypti [3]) was 100%, the Activity (Mythimna separata [4]) was 40% and the Activity (Aedes aegypti [17]) was 0%. For the same molecule, the Activity (Mythimna separata [5]) was 100%, the Activity (Aedes aegypti [10]) was 50% and the Activity (Aedes aegypti [11]) was 100%. It also gave an Activity (Aedes aegypti [13]) of 10%, an Activity (Mythimna separata [7]) of 80% and an Activity (Mythimna separata [14]) of 0%.
`N#C/C(=N\OCc1ccccc1)c1ccc(NC(=O)NC(=O)c2c(F)cccc2F)cc1` gave an Activity (Mythimna separata [1]) of 0%, an Activity (Aedes aegypti [3]) of 100% and an Activity (Aedes aegypti [10]) of 0%. For the same molecule, the Activity (Aedes aegypti [11]) was 90% and the Activity (Aedes aegypti [8]) was 100%.
`CC(C)O/N=C/c1ccc(NC(=O)NC(=O)c2c(F)cccc2F)c(Cl)c1` gave an Activity (Mythimna separata [4]) of 100%, an Activity (Aedes aegypti [17]) of 100% and an Activity (Mythimna separata [9]) of 0%. For the same molecule, the Activity (Aedes aegypti [18]) was 30%, the Activity (Mythimna separata [12]) was 10% and the Activity (Aedes aegypti [8]) was 100%. It also gave an Activity (Mythimna separata [14]) of 90%.
`CC(C)O/N=C/c1ccc(NC(=O)NC(=O)c2c(F)cccc2F)c(F)c1` showed an Activity (Aedes aegypti [19]) of 50%, an Activity (Aedes aegypti [17]) of 100% and an Activity (Mythimna separata [9]) of 90%. It also gave an LC50 (Plutella xylostella) of 2.75 µg/mL (≈ 7.25 µM), an Activity (Aedes aegypti [20]) of 20% and an Activity (Mythimna separata [21]) of 10%. For the same molecule, the Activity (Aedes aegypti [18]) was 100%, the Activity (Mythimna separata [12]) was 100% and the Activity (Mythimna separata [22]) was 0%. It also gave an LC50 (Ostrinia nubilalis) of 7.59 µg/mL (≈ 20 µM), an LC50 (Spodoptera exigua) of 4.32 µg/mL (≈ 11.4 µM) and an Activity (Mythimna separata [14]) of 100%. The Activity (Aedes aegypti [23]) was 10%.
Work on `CC(C)O/N=C/c1ccc(NC(=O)NC(=O)c2c(F)cccc2F)cc1Cl` yielded an Activity (Aedes aegypti [19]) of 30%, an Activity (Mythimna separata [4]) of 100% and an Activity (Aedes aegypti [17]) of 100%. For the same molecule, the Activity (Mythimna separata [9]) was 0%, the Activity (Aedes aegypti [20]) was 10% and the Activity (Aedes aegypti [18]) was 100%. The Activity (Mythimna separata [12]) was 10% and the Activity (Mythimna separata [14]) was 90%.
`CC(=O)O/N=C/c1ccc(NC(=O)NC(=O)c2c(F)cccc2F)cc1` was tested, and the Activity (Mythimna separata [1]) was 100%, the Activity (Mythimna separata [2]) was 50% and the Activity (Aedes aegypti [15]) was 100%. It also gave an Activity (Aedes aegypti [3]) of 0%, an Activity (Mythimna separata [5]) of 20% and an Activity (Mythimna separata [6]) of 10%. The Activity (Mythimna separata [7]) was 0%, the Activity (Aedes aegypti [8]) was 20% and the Activity (Aedes aegypti [16]) was 100%.
`O=C(NC(=O)c1c(F)cccc1F)Nc1ccc(/C=N/OC(=O)c2ccccc2)cc1` showed an Activity (Aedes aegypti [15]) of 100%, an Activity (Aedes aegypti [3]) of 80% and an Activity (Mythimna separata [4]) of 40%. The Activity (Aedes aegypti [11]) was 30%, the Activity (Mythimna separata [6]) was 90% and the Activity (Mythimna separata [7]) was 80%. For the same molecule, the Activity (Aedes aegypti [8]) was 100% and the Activity (Mythimna separata [14]) was 0%.
Work on `Cc1cc(C)cc(C(=O)O/N=C/c2ccc(NC(=O)NC(=O)c3c(F)cccc3F)cc2)c1` yielded an Activity (Aedes aegypti [3]) of 100%, an Activity (Mythimna separata [4]) of 90% and an Activity (Aedes aegypti [10]) of 90%. The Activity (Aedes aegypti [11]) was 90%, the Activity (Aedes aegypti [13]) was 10% and the Activity (Mythimna separata [6]) was 100%. The Activity (Mythimna separata [7]) was 100%, the Activity (Aedes aegypti [8]) was 100% and the Activity (Mythimna separata [14]) was 0%.
For `CC(C)C(=O)O/N=C/c1ccc(NC(=O)NC(=O)c2c(F)cccc2F)cc1`, the Activity (Aedes aegypti [3]) was 100%, the Activity (Mythimna separata [4]) was 100% and the Activity (Mythimna separata [9]) was 0%. For the same molecule, the Activity (Aedes aegypti [10]) was 10%, the Activity (Aedes aegypti [11]) was 70% and the Activity (Mythimna separata [12]) was 10%. For the same molecule, the Activity (Aedes aegypti [13]) was 0%, the Activity (Mythimna separata [7]) was 100% and the Activity (Aedes aegypti [8]) was 100%. It also gave an Activity (Mythimna separata [14]) of 20%.
With `O=C(NC(=O)c1c(F)cccc1F)Nc1ccc(/C=N/Oc2ccc(Cl)cc2)cc1` the Activity (Aedes aegypti [24]) was 20%, the Activity (Aedes aegypti [19]) was 100% and the Activity (Mythimna separata [4]) was 100%. It also gave an Activity (Aedes aegypti [20]) of 100%, an Activity (Mythimna separata [12]) of 0% and an Activity (Mythimna separata [7]) of 100%. For the same molecule, the Activity (Mythimna separata [14]) was 80%.
Work on `O=C(NC(=O)c1c(F)cccc1F)Nc1ccc(/C=N/Oc2ccc(Br)cc2)cc1` yielded an Activity (Aedes aegypti [19]) of 40%, an Activity (Mythimna separata [4]) of 90% and an Activity (Aedes aegypti [17]) of 100%. It also gave an Activity (Aedes aegypti [20]) of 0%, an Activity (Mythimna separata [5]) of 90% and an Activity (Aedes aegypti [18]) of 100%. The Activity (Mythimna separata [12]) was 0%, the Activity (Mythimna separata [6]) was 100% and the Activity (Mythimna separata [7]) was 100%. For the same molecule, the Activity (Mythimna separata [14]) was 90% and the Activity (Aedes aegypti [23]) was 90%.
Work on `O=C(NC(=O)c1c(F)cccc1F)Nc1ccc(/C=N/Oc2ccccc2)cc1` yielded an Activity (Aedes aegypti [19]) of 10%, an Activity (Mythimna separata [1]) of 100% and an Activity (Mythimna separata [2]) of 100%. It also gave an Activity (Mythimna separata [4]) of 0%, an Activity (Aedes aegypti [17]) of 100% and an Activity (Aedes aegypti [18]) of 20%. For the same molecule, the Activity (Aedes aegypti [13]) was 100%, the Activity (Mythimna separata [6]) was 40% and the Activity (Mythimna separata [7]) was 20%.
`CC(C)(C)O/N=C/c1ccc(NC(=O)NC(=O)c2c(F)cccc2F)c(F)c1` was tested, and the Activity (Mythimna separata [9]) was 90%, the LC50 (Plutella xylostella) was 0.57 µg/mL (≈ 1.45 µM) and the Activity (Mythimna separata [21]) was 10%. For the same molecule, the Activity (Mythimna separata [12]) was 100%, the LC50 (Ostrinia nubilalis) was 10 µg/mL (≈ 25.5 µM) and the LC50 (Spodoptera exigua) was 3.37 µg/mL (≈ 8.57 µM). It also gave an Activity (Mythimna separata [14]) of 100%.
With `CC(C)(C)O/N=C/c1cccc(NC(=O)NC(=O)c2c(F)cccc2F)c1` the Activity (Mythimna separata [2]) was 100%, the Activity (Mythimna separata [5]) was 100% and the Activity (Mythimna separata [6]) was 90%.
With `CC(C)(C)O/N=C/c1ccccc1NC(=O)NC(=O)c1c(F)cccc1F` the Activity (Mythimna separata [1]) was 0%.
With `CC(C)(C)O/N=C/Cc1ccc(NC(=O)NC(=O)c2c(F)cccc2F)cc1` the Activity (Mythimna separata [5]) was 100%, the Activity (Mythimna separata [6]) was 100% and the Activity (Mythimna separata [7]) was 80%.
`CC(C)O/N=C/c1ccc(NC(=O)NC(=O)c2c(F)cccc2F)cc1` gave an Activity (Aedes aegypti [19]) of 15%, an Activity (Mythimna separata [9]) of 50% and an Activity (Aedes aegypti [20]) of 0%. It also gave an Activity (Mythimna separata [21]) of 0%, an Activity (Aedes aegypti [18]) of 75% and an Activity (Mythimna separata [12]) of 100%. It also gave an Activity (Mythimna separata [14]) of 100%.
Molecule `O=C(NC(=O)c1c(F)cccc1F)Nc1ccc(CO/N=C(/c2ccc(Cl)cc2)C2CC2)cc1` [FLUCYCLOXURON] has an Activity (Mythimna separata [4]) of 90%, an Activity (Aedes aegypti [17]) of 0% and an Activity (Mythimna separata [9]) of 0%. The LC50 (Plutella xylostella) was 72.9 µg/mL (≈ 151 µM), the Activity (Aedes aegypti [10]) was 100% and the Activity (Aedes aegypti [11]) was 100%. For the same molecule, the Activity (Mythimna separata [12]) was 10%, the Activity (Aedes aegypti [13]) was 15% and the LC50 (Ostrinia nubilalis) was 9.25 µg/mL (≈ 19.1 µM). The Activity (Mythimna separata [7]) was 95%, the LC50 (Spodoptera exigua) was 102 µg/mL (≈ 210 µM) and the Activity (Mythimna separata [14]) was 50%.
